From BigSolDB 2.1

O=[N+]([O-])c1cccc2ccccc12
solubility (mole fraction)
Conditions | 273.15 K | 278.15 K | 283.15 K | 288.15 K | 293.15 K | 298.15 K | 303.15 K | 308.15 K
in acetone | 0.145 | 0.181 | 0.232 | 0.277 | 0.344 | 0.426 | 0.508 | 0.603
in acetonitrile | 0.0535 | 0.0739 | 0.104 | 0.149 | 0.225 | 0.322 | 0.433 | 0.591
in cyclohexane | – | 0.00743 | 0.0104 | 0.0134 | 0.0177 | 0.0261 | 0.0382 | 0.0532
in dichloromethane | 0.241 | 0.283 | 0.328 | 0.384 | 0.434 | 0.5 | 0.554 | 0.637
in ethanol | 0.00915 | 0.0111 | 0.0138 | 0.0173 | 0.0218 | 0.0281 | 0.0366 | 0.0467
in ethyl acetate | 0.143 | 0.172 | 0.213 | 0.254 | 0.31 | 0.382 | 0.472 | 0.566
in isobutanol | 0.00604 | 0.00768 | 0.00962 | 0.0123 | 0.0163 | 0.0219 | 0.0306 | 0.0424
in isopropanol | 0.00588 | 0.00782 | 0.00957 | 0.0123 | 0.0163 | 0.022 | 0.0301 | 0.0423
in methanol | 0.00637 | 0.00811 | 0.00991 | 0.0124 | 0.0155 | 0.0204 | 0.027 | 0.0353
in methyl acetate | 0.135 | 0.172 | 0.21 | 0.26 | 0.32 | 0.406 | 0.487 | 0.59
in n-butanol | 0.0111 | 0.0138 | 0.0169 | 0.0214 | 0.0274 | 0.0359 | 0.0493 | 0.0679
in n-propanol | 0.0094 | 0.0118 | 0.0143 | 0.0176 | 0.0228 | 0.03 | 0.0409 | 0.058
